Values quoted from earlier work, collected in patent US7638651B2, “Substituted cyclohexanones” (Auspex Pharmaceuticals, priority 2007, dated 2009).

How the values were obtained:
[1] = for half-life: ketamine: depending on the mode of administration

## CN[C@]1(c2ccccc2Cl)CCCCC1=O (single isomer, unassigned) [S-(+) isomer]
More potent than the R-(−) isomer
  potency relative to the R-(−) isomer: approximately four

## CNC1(c2ccccc2Cl)CCCCC1=O (centres unmarked) [Ketamine]
[1]; in vivo
  blood to plasma ratio: ~0.82
[1]
  half-life: two to about five

## NC1(c2ccccc2Cl)CCCCC1=O (centres unmarked) [Norketamine, N-desmethylketamine]
As potent as the parent drug (ketamine)
  potency relative to the parent drug: roughly one third
[1]
  half-life: about five
